The values that follow come from paper PMC11311821, “Biochemical Characterisation of Sis: A Distinct Thermophilic PETase with Enhanced NanoPET Substrate Hydrolysis and Thermal Stability” (International Journal of Molecular Sciences, 2024).

In this assay the test system is Sis. The assay can be described thus: spectrophotometric p-nitrophenol release at […] nm. In kind it is biochemical, metagenome: geothermal site (36 °C, pH 9.8). As to conditions: optimal conditions of pH and temperature (sodium-phosphate pH 7.0, 70 °C).

Broadly, the Km is the substrate concentration at which the rate is half of its maximum. As for `CCCC(=O)Oc1ccc([N+](=O)[O-])cc1` [pNP-butyrate], the Km is 80 ± 10 µM.
